Structures can show the parent of a compound that is named as a salt. Starred links: 1 amine or outer side, 2 acyl side, 3 side chain; linkers in the order of their positions; H or OH if unused. Positions of bridges follow the written chain, without caps; N, C: chain ends. Non-standard residues stand in square brackets, D forms with d. Residues, ends and D or L forms follow the SMILES beside them. *: point of attachment. X36 = C[N+]1(CCCc2cn(-c3ccc(C[C@H](N[*:1])C(=O)[*:2])cc3)nn2)CCOCC1; Me3N+(CH2)2O(CH2)2O(CH2)2CO = C[N+](C)(C)CCOCCOCCC(=O)*; Trp(7-Me) = Cc1cccc2c(C[C@H](N)C(=O)O)c[nH]c12; Abu(4-yl) = O=C([C@H](CC[*:3])N[*:1])[*:2]; dLys(Me3) = C[N+](C)(C)CCCC[C@@H](N)C(=O)O; X23 = Cn1nnc(CC[C@H](N[*:1])C(=O)[*:2])n1; 2Nal = N[C@@H](Cc1ccc2ccccc2c1)C(=O)O; AEF = NCCOc1ccc(C[C@H](N)C(=O)O)cc1; PEG6 = NCCOCCOCCOCCOCCOCCOCCC(=O)O; 3Pal = N[C@@H](Cc1cccnc1)C(=O)O; X14 = C[N+](C)(C)CCc1cn(CC*)nn1; Lys(Me) = CNCCCC[C@H](N)C(=O)O; Pen = CC(C)(S)[C@H](N)C(=O)O; X86 = C[N+]1(C)CCCC(C*)C1; αMeC = C[C@](N)(CS)C(=O)O; Thp = NC1(C(=O)O)CCOCC1; X3 = C[N+](C)(C)CCCCC*; X72 = C[N+](C)(C)CCCC*; Me2NCH2CH2 = CN(C)CC*; Tfa = O=C(C(F)(F)F)*; Sar = CNCC(=O)O
Assay: Exposed Polar Surface Area (EPSA)
Format: physicochemical
Conditions: SFC on Chirex 3014 column; sample 1 mM DMSO stock; read-out: EPSA
Outline: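 Chirex 3014 column, 35 °C, 4 mL/min; CO2/MeOH + 20 mM NH4 formate, 5→60% modifier at 20%/min. UV/MS detection. EPSA (Å^2) from retention time vs 8-standard calibration line; duplicates; 1 mM DMSO stock injected undiluted.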

Compound | EPSA [A^2]
CC(=O)NCCCC[C@@H]1NC(=O)[C@H](Cc2c[nH]c3c(C)cccc23)NC(=O)[C@H]([C@@H](C)O)NC(=O)[C@H](CC(N)=O)NC(=O)[C@@H](NC(=O)CCCCC[N+](C)(C)C)C(C)(C)SSC(C)(C)[C@@H](C(=O)N[C@@H](Cc2ccc(OCCNC(=O)CCOCCOCC[N+](C)(C)C)cc2)C(=O)N[C@@H](Cc2ccc3ccccc3c2)C(=O)NC2(C(=O)N[C@@H](CNC(C)=O)C(=O)N[C@@H](CC(N)=O)C(=O)N[C@@H](Cc3cccnc3)C(=O)N(C)CC(N)=O)CCOCC2)NC1=O [compound 192] | 149
CC(=O)NCCCC[C@@H]1NC(=O)[C@H](Cc2c[nH]c3c(C)cccc23)NC(=O)[C@H]([C@@H](C)O)NC(=O)[C@H](CC(N)=O)NC(=O)[C@@H](NC(C)=O)C(C)(C)SSC(C)(C)[C@@H](C(=O)N[C@@H](Cc2ccc(-n3cc(CCC[N+]4(C)CCOCC4)nn3)cc2)C(=O)N[C@@H](Cc2ccc3ccccc3c2)C(=O)NC2(C(=O)N[C@@H](CCC(=O)O)C(=O)N[C@@H](CC(N)=O)C(=O)N[C@@H](Cc3cccnc3)C(=O)N(C)CC(N)=O)CCOCC2)NC1=O [compound 453] (Ac-[Pen]NT[Trp(7-Me)]K(Ac)[Pen][X36][2Nal][Thp]EN[3Pal][Sar]-NH2; disulfide 1-6) | 173
Cc1cccc2c(C[C@@H]3NC(=O)[C@H]([C@@H](C)O)NC(=O)[C@H](CC(=O)N(C)C)NC(=O)[C@@H](NC(=O)CCOCCOCC[N+](C)(C)C)C(C)(C)SSC(C)(C)[C@@H](C(=O)N[C@@H](Cc4ccc(OCCN(C)C)cc4)C(=O)N[C@@H](Cc4ccc5ccccc5c4)C(=O)NC4(C(=O)N[C@@H](CCC(=O)N(C)C)C(=O)N[C@@H](CC(N)=O)C(=O)N[C@@H](Cc5cccnc5)C(=O)N(C)CC(=O)N(C)C)CCOCC4)NC(=O)[C@H](CCC(=O)N(C)C)NC3=O)c[nH]c12 [compound 154, cPEG3aCO-Pen(3)-N(N(Me)2)-T-7MeW-Q(N(Me)2)-Pen(3)-AEF(N(Me)2)-2Nal-THP-Q(N(Me)2)-N-3Pya-Sar-CON(Me)2] ({Me3N+(CH2)2O(CH2)2O(CH2)2CO}-[Pen]D(NMe2)T[Trp(7-Me)]E(NMe2)[Pen]Y(Me2NCH2CH2)[2Nal][Thp]E(NMe2)N[3Pal][Sar]-NMe2; disulfide 1-6) | 144
CC(=O)N(C)CCCC[C@@H]1NC(=O)[C@H](Cc2c[nH]c3c(C)cccc23)NC(=O)[C@H]([C@@H](C)O)NC(=O)[C@H](CC(=O)N(C)C)NC(=O)[C@@H](NC(=O)CCOCCOCC[N+](C)(C)C)C(C)(C)SSC[C@@H](C(=O)N[C@@H](Cc2ccc(OCCCCC[N+](C)(C)C)cc2)C(=O)N[C@@H](Cc2ccc3ccccc3c2)C(=O)NC2(C(=O)N[C@@H](CCCCN(C)C(C)=O)C(=O)N[C@@H](CC(N)=O)C(=O)N[C@@H](Cc3cccnc3)C(=O)N(C)CC(=O)N(C)C)CCOCC2)NC1=O [compound 485, cPEG3aCO-Pen(3)-N(N(Me)2)-T-7MeW-K(NMeAc)-C(3)-TMAPF-2Nal-THP-K(NMeAc)-N-3Pya-Sar-CON(Me)2] ({Me3N+(CH2)2O(CH2)2O(CH2)2CO}-[Pen]D(NMe2)T[Trp(7-Me)][Lys(Me)](Ac)CY(X3)[2Nal][Thp][Lys(Me)](Ac)N[3Pal][Sar]-NMe2; disulfide 1-6) | 163
CC(=O)NCCCC[C@@H]1NC(=O)[C@H](Cc2c[nH]c3ccccc23)NC(=O)[C@H]([C@@H](C)O)NC(=O)[C@H](CC(N)=O)NC(=O)[C@@H](NC(=O)[C@@H](CCCC[N+](C)(C)C)NC(C)=O)CCSC[C@@](C)(C(=O)N[C@@H](Cc2ccc(OCCN)cc2)C(=O)N[C@@H](Cc2ccc3ccccc3c2)C(=O)NC2(C(=O)N[C@@H](CCCCNC(C)=O)C(=O)N[C@@H](CC(N)=O)C(=O)N[C@@H](Cc3cccnc3)C(=O)N(C)CC(N)=O)CCOCC2)NC1=O [compound 569, MeCO-k(Me)3-Abu(1)-N-T-W-K(Ac)-aMeC(1)-AEF-2Nal-THP-K(Ac)-N-3Pya-Sar-CONH2] (Ac-[dLys(Me3)][Abu(4-yl)]NTWK(Ac)[αMeC][AEF][2Nal][Thp]K(Ac)N[3Pal][Sar]-NH2; thioether 2-7) | 173
CC(=O)N(C)CCCC[C@@H]1NC(=O)[C@H](Cc2c[nH]c3c(C)cccc23)NC(=O)[C@H]([C@@H](C)O)NC(=O)[C@H](CC(=O)N(C)C)NC(=O)[C@@H](NC(=O)CCOCCOCC[N+](C)(C)C)C(C)(C)SSC(C)(C)[C@@H](C(=O)N[C@@H](Cc2ccc(OCC3CCC[N+](C)(C)C3)cc2)C(=O)N[C@@H](Cc2ccc3ccccc3c2)C(=O)NC2(C(=O)N[C@@H](CCCCN(C)C(C)=O)C(=O)N[C@@H](CC(N)=O)C(=O)N[C@@H](Cc3cccnc3)C(=O)N(C)CC(=O)N(C)C)CCOCC2)NC1=O (stereo partly drawn) [compound 215, cPEG3aCO-Pen(3)-N(N(Me)2)-T-7MeW-K(NMeAc)-Pen(3)-DMMMF-2Nal-THP-K(NMeAc)-N-3Pya-Sar-CON(Me)2] ({Me3N+(CH2)2O(CH2)2O(CH2)2CO}-[Pen]D(NMe2)T[Trp(7-Me)][Lys(Me)](Ac)[Pen]Y(X86)[2Nal][Thp][Lys(Me)](Ac)N[3Pal][Sar]-NMe2; disulfide 1-6) | 145
CC(=O)NCCCC[C@@H]1NC(=O)[C@H](Cc2c[nH]c3c(C)cccc23)NC(=O)[C@H]([C@@H](C)O)NC(=O)[C@H](CC(N)=O)NC(=O)[C@@H](NC(=O)C(F)(F)F)C(C)(C)SSC(C)(C)[C@@H](C(=O)N[C@@H](Cc2ccc(OCCN)cc2)C(=O)N[C@@H](Cc2ccc3ccccc3c2)C(=O)NC2(C(=O)N[C@@H](CCc3nnn(C)n3)C(=O)N[C@@H](CC(N)=O)C(=O)N[C@@H](Cc3cccnc3)C(=O)N(C)CC(N)=O)CCOCC2)NC1=O [compound 76] (Tfa-[Pen]NT[Trp(7-Me)]K(Ac)[Pen][AEF][2Nal][Thp][X23]N[3Pal][Sar]-NH2; disulfide 1-6) | 161
CC(=O)NCCCC[C@@H]1NC(=O)[C@H](Cc2c[nH]c3c(C)cccc23)NC(=O)[C@H]([C@@H](C)O)NC(=O)[C@H](CC(N)=O)NC(=O)[C@@H](NC(=O)[C@@H](CCCNC(=N)N)NC(=O)CCOCCOCCOCCOCCOCCOCCNC(C)=O)C(C)(C)SSC(C)(C)[C@@H](C(=O)N[C@@H](Cc2ccc(OCCN)cc2)C(=O)N[C@@H](Cc2ccc3ccccc3c2)C(=O)NC2(C(=O)N[C@@H](CCC(=O)O)C(=O)N[C@@H](CC(N)=O)C(=O)N[C@@H](Cc3cccnc3)C(=O)N(C)CC(N)=O)CCOCC2)NC1=O [compound 37] (Ac-[PEG6][dR][Pen]NT[Trp(7-Me)]K(Ac)[Pen][AEF][2Nal][Thp]EN[3Pal][Sar]-NH2; disulfide 3-8 (inferred)) | 174
CC(=O)N(C)CCCC[C@@H]1NC(=O)[C@H](Cc2c[nH]c3c(C)cccc23)NC(=O)[C@H]([C@@H](C)O)NC(=O)[C@H](CC(=O)N(C)C)NC(=O)[C@@H](NC(=O)CCOCCOCC[N+](C)(C)C)C(C)(C)SSC(C)(C)[C@@H](C(=O)N[C@@H](Cc2ccc(OCCCCC[N+](C)(C)C)cc2)C(=O)N[C@@H](Cc2ccc3ccccc3c2)C(=O)NC2(C(=O)N[C@@H](CCC(=O)N(C)C)C(=O)N[C@@H](CC(N)=O)C(=O)N[C@@H](Cc3cccnc3)C(=O)N(C)CC(=O)N(C)C)CCOCC2)NC1=O [compound 310, cPEG3aCO-Pen(3)-N(N(Me)2)-T-7MeW-K(NMeAC)-Pen(3)-TMAPF-2Nal-THP-Q(N(Me)2)-N-3Pya-Sar-CON(Me)2] ({Me3N+(CH2)2O(CH2)2O(CH2)2CO}-[Pen]D(NMe2)T[Trp(7-Me)][Lys(Me)](Ac)[Pen]Y(X3)[2Nal][Thp]E(NMe2)N[3Pal][Sar]-NMe2; disulfide 1-6) | 152
CC(=O)N(C)CCCC[C@@H]1NC(=O)[C@H](Cc2c[nH]c3c(C)cccc23)NC(=O)[C@H]([C@@H](C)O)NC(=O)[C@H](CC(=O)N(C)C)NC(=O)[C@@H](NC(=O)C(F)(F)F)C(C)(C)SSC(C)(C)[C@@H](C(=O)N[C@@H](Cc2ccc(OCCN(C)C)cc2)C(=O)N[C@@H](Cc2ccc3ccccc3c2)C(=O)NC2(C(=O)N[C@@H](CCC(=O)N(C)C)C(=O)N[C@@H](CC(N)=O)C(=O)N[C@@H](Cc3cccnc3)C(=O)N(C)CC(N)=O)CCOCC2)NC1=O [compound 79, CF3CO-Pen(3)-N(N(Me)2)-T-7MeW-K(NMeAc)-Pen(3)-AEF(N(Me)2)-2Nal-THP-Q(N(Me)2)-N-3Pya-Sar-CONH2] (Tfa-[Pen]D(NMe2)T[Trp(7-Me)][Lys(Me)](Ac)[Pen]Y(Me2NCH2CH2)[2Nal][Thp]E(NMe2)N[3Pal][Sar]-NH2; disulfide 1-6 (inferred)) | 144
CC(=O)NCCCC[C@@H]1NC(=O)[C@H](Cc2c[nH]c3c(C)cccc23)NC(=O)[C@H]([C@@H](C)O)NC(=O)[C@H](CC(N)=O)NC(=O)[C@@H](NC(C)=O)C(C)(C)SSC(C)(C)[C@@H](C(=O)N[C@@H](Cc2ccc(OCCNC(=O)CCOCCOCC[N+](C)(C)C)cc2)C(=O)N[C@@H](Cc2ccc3ccccc3c2)C(=O)NC2(C(=O)N[C@@H](CNC(C)=O)C(=O)N[C@@H](CC(N)=O)C(=O)N[C@@H](Cc3cccnc3)C(=O)N(C)CC(N)=O)CCOCC2)NC1=O [compound 189] | 144
CC(=O)NCCCC[C@@H]1NC(=O)[C@H](Cc2c[nH]c3c(C)cccc23)NC(=O)[C@H]([C@@H](C)O)NC(=O)[C@H](CC(N)=O)NC(=O)[C@@H](NC(C)=O)C(C)(C)SSC(C)(C)[C@@H](C(=O)N[C@@H](Cc2ccc(OCCn3cc(CC[N+](C)(C)C)nn3)cc2)C(=O)N[C@@H](Cc2ccc3ccccc3c2)C(=O)NC2(C(=O)N[C@@H](CCCCNC(C)=O)C(=O)N[C@@H](CC(N)=O)C(=O)N[C@@H](Cc3cccnc3)C(=O)N(C)CC(N)=O)CCOCC2)NC1=O [compound 235] (Ac-[Pen]NT[Trp(7-Me)]K(Ac)[Pen]Y(X14)[2Nal][Thp]K(Ac)N[3Pal][Sar]-NH2; disulfide 1-6 (inferred)) | 149
CC(=O)N(C)CCCC[C@@H]1NC(=O)[C@H](Cc2c[nH]c3c(C)cccc23)NC(=O)[C@H]([C@@H](C)O)NC(=O)[C@H](CC(=O)N(C)C)NC(=O)[C@@H](NC(=O)CCOCCOCC[N+](C)(C)C)C(C)(C)SSC(C)(C)[C@@H](C(=O)N[C@@H](Cc2ccc(OCCCC[N+](C)(C)C)cc2)C(=O)N[C@@H](Cc2ccc3ccccc3c2)C(=O)NC2(C(=O)N[C@@H](CCCCN(C)C(C)=O)C(=O)N[C@@H](CC(N)=O)C(=O)N[C@@H](Cc3cccnc3)C(=O)N(C)CC(=O)N(C)C)CCOCC2)NC1=O [compound 226, cPEG3aCO-Pen(3)-N(N(Me)2)-T-7MeW-K(NMeAc)-Pen(3)-TMA4F-2Nal-THP-K(NMeAc)-N-3Pya-Sar-CON(Me)2] ({Me3N+(CH2)2O(CH2)2O(CH2)2CO}-[Pen]D(NMe2)T[Trp(7-Me)][Lys(Me)](Ac)[Pen]Y(X72)[2Nal][Thp][Lys(Me)](Ac)N[3Pal][Sar]-NMe2; disulfide 1-6) | 142
